# Measurements taken from ChEMBL document CHEMBL4130634, “Discovery of Reversible DNA Methyltransferase and Lysine Methyltransferase G9a Inhibitors with Antitumoral in Vivo Efficacy” (J Med Chem, 2018).
# How the values were obtained:
# [1] = Metabolic stability in mouse liver microsomes assessed as parent compound remaining at 1 uM preincubated for 10 mins followed by NADP addition after 20 mins by LC-MS/MS analysis; format: ADME, microsome; conditions: read-out: Stability
# [2] = target: T1, Histone-lysine N-methyltransferase EHMT1 (Homo sapiens, UniProt Q9H9B1); assay: Inhibition of recombinant human GLP using histone H3 peptide as substrate after 120 mins in presence of [3H]SAM by radiometric assay
# T1 sequence (Q9H9B1 whole entry): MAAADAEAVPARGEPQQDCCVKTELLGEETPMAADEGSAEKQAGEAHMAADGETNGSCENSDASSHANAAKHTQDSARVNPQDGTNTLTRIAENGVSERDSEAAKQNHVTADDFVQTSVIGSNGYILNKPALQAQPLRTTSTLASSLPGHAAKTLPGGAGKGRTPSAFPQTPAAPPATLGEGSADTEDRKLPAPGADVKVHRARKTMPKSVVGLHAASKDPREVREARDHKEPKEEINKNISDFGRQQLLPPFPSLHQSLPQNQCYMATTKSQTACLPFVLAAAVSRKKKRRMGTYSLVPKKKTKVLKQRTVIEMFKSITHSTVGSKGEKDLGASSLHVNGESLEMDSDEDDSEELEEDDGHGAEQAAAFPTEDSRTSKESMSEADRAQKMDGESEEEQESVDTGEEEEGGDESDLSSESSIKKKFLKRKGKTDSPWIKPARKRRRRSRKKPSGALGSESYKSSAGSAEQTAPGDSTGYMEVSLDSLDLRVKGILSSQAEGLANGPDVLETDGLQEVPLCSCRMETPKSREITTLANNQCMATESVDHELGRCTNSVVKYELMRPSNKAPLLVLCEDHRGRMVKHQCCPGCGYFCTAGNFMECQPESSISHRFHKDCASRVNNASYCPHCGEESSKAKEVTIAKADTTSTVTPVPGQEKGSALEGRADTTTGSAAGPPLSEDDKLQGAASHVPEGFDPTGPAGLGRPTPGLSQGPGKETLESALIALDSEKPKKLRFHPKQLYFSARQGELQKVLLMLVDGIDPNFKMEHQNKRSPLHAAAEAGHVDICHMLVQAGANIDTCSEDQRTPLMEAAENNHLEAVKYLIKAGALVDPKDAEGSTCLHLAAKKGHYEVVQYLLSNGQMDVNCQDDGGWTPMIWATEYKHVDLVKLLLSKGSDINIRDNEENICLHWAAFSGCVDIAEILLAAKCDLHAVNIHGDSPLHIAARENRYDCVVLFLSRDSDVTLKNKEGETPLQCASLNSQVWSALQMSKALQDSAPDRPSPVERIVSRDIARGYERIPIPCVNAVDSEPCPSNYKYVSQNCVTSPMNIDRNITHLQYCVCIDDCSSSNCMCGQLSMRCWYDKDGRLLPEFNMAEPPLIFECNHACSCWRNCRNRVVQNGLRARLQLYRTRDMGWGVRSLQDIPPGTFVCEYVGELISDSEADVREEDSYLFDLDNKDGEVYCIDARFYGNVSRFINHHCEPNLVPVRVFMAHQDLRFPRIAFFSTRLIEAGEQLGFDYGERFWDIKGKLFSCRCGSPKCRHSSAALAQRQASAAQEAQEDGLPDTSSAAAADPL
# [3] = Volume of distribution at steady state in RARG2-/-gammac-/- Balb/c mouse at 5 mg/kg, iv administered as single dose by LC-MS/MS analysis; format: ADME, organism-based; conditions: in vivo, read-out: Vdss
# CYP2D6 = CYP2D6 (Homo sapiens, UniProt P10635); assay: Inhibition of CYP2D6 in human liver microsomes at 10 uM after 10 mins in presence of NADPH by LC-MS/MS analysis relative to control; format: ADME
# CYP2C9 = CYP2C9 (Homo sapiens, UniProt P11712); assay: Inhibition of CYP2C9 in human liver microsomes at 10 uM after 10 mins in presence of NADPH by LC-MS/MS analysis relative to control; format: ADME
# CYP3A4 = CYP3A4 (Homo sapiens, UniProt P08684); assay: Inhibition of CYP3A4 in human liver microsomes at 10 uM after 10 mins in presence of NADPH by LC-MS/MS analysis relative to control; format: ADME
# [4] = Permeability of the compound at 50 uM after 18 hrs by PAMPA; format: ADME; conditions: read-out: permeability
# CYP2C19 = CYP2C19 (Homo sapiens, UniProt P33261); assay: Inhibition of CYP2C19 in human liver microsomes at 10 uM after 10 mins in presence of NADPH by LC-MS/MS analysis relative to control; format: ADME
# MV4-11 = assay: Growth inhibition of human MV4-11 cells after 48 hrs by MTS assay; format: functional; conditions: MV4-11, 48 h
# [5] = Half life in RARG2-/-gammac-/- Balb/c mouse at 5 mg/kg, iv administered as single dose by LC-MS/MS analysis; format: ADME, organism-based; conditions: in vivo
# Chain of CYP2C9 (P11712 whole entry): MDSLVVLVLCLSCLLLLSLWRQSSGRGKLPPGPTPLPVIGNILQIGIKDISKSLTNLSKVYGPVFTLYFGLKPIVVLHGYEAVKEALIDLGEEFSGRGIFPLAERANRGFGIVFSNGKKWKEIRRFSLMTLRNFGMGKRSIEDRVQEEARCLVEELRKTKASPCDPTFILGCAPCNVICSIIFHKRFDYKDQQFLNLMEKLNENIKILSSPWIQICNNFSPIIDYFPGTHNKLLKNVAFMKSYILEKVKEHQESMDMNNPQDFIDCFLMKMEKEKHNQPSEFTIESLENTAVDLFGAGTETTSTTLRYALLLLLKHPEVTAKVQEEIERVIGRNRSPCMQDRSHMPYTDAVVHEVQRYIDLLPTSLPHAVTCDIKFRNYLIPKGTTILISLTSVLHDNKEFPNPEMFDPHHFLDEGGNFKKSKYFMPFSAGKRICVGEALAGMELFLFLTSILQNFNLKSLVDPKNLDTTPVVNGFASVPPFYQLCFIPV
# Chain of CYP3A4 (P08684 whole entry): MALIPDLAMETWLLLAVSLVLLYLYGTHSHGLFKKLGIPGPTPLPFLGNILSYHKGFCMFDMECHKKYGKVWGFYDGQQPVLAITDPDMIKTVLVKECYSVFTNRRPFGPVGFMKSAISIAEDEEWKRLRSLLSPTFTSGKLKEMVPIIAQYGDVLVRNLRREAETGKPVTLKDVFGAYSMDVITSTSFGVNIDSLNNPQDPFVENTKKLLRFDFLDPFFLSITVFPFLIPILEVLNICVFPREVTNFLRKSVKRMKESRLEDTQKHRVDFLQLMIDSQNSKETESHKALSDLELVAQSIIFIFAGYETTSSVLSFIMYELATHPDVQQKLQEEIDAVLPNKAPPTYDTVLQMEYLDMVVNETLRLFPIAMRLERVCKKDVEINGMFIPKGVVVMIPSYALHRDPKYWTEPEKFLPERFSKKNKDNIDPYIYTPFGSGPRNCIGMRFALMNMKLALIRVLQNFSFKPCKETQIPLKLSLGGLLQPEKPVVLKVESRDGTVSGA
# Chain of CYP2C19 (P33261 whole entry): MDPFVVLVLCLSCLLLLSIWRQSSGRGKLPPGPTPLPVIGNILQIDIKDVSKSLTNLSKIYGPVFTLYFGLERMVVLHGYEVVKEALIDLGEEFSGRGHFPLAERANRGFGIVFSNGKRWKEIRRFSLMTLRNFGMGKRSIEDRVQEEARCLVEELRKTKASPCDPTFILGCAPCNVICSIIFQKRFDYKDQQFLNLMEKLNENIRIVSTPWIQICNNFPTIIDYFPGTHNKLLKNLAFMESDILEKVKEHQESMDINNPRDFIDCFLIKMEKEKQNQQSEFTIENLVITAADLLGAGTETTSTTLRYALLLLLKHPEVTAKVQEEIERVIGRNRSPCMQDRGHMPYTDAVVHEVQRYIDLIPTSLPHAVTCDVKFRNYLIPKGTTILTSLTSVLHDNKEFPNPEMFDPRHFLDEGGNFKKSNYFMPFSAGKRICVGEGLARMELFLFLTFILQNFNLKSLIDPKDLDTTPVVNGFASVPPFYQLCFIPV
# Chain of CYP2D6 (P10635 whole entry): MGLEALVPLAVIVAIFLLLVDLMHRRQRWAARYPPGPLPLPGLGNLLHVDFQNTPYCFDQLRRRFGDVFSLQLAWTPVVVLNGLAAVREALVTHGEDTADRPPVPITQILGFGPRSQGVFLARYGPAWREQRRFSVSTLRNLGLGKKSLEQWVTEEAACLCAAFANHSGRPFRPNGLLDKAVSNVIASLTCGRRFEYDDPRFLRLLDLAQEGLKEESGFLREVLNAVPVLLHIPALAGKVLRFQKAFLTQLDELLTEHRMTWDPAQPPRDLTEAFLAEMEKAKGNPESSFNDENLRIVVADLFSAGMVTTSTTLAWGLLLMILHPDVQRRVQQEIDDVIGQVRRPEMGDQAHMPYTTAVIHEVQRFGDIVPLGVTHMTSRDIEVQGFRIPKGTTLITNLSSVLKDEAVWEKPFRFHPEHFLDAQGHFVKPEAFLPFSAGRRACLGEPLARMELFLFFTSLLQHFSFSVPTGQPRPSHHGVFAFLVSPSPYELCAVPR
smiles,measurement,setting,value
COc1cc2c(NC3CCN(C4CC4)CC3)cc(-c3ccc(C)o3)nc2cc1OCCCN1CCCC1,"remaining at 20 min, 1 µM",[1],15%
same,IC50,[2],> 20000 nM
same,Vd,[3],11.9 L/kg
same,"inhibition at 10 min, 10 µM",CYP2D6,27.6%
same,"inhibition at 10 min, 10 µM",CYP2C9,8%
same,"inhibition at 10 min, 10 µM",CYP3A4,4.6%
same,"Papp at 18 h, 50 µM",[4],4.04 ×10⁻⁶ cm/s
same,"inhibition at 10 min, 10 µM",CYP2C19,4%
same,GI50,MV4-11,1590 nM
same,half-life,[5],10.4 h
